# ChEMBL document CHEMBL5500380, “Recent discovery and development of AXL inhibitors as antitumor agents” (Eur J Med Chem, 2024)
# Legend:
# [1] = target: T1, Tyrosine-protein kinase receptor UFO (Homo sapiens, UniProt P30530); assay: Inhibition of AXL (unknown origin)
# T1 sequence (P30530 whole entry): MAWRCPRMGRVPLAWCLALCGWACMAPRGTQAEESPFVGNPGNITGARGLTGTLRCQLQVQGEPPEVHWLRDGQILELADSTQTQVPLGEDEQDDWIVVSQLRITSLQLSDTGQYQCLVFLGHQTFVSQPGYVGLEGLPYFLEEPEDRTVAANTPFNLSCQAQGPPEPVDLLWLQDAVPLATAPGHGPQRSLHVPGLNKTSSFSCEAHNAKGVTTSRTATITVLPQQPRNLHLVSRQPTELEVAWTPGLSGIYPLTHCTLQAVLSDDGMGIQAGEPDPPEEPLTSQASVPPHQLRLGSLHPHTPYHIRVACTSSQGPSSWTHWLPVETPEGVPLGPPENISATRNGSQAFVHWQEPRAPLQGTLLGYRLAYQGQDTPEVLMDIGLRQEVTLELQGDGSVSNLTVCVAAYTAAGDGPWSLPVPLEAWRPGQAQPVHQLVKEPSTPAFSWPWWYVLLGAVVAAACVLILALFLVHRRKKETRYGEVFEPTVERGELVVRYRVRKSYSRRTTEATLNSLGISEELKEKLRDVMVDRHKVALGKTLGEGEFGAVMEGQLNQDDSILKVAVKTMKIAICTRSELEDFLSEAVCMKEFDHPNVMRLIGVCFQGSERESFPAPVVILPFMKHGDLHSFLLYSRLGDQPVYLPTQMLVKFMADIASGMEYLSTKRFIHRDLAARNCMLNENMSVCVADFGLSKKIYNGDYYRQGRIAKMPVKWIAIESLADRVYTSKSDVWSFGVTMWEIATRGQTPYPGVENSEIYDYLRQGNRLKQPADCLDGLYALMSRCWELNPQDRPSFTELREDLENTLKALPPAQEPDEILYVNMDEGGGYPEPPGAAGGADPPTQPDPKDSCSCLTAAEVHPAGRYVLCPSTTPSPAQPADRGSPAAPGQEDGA
# [2] = target: T1, Tyrosine-protein kinase receptor UFO; assay: Inhibition of AXL (unknown origin) by HTRF kinase assay
# Aurora kinase A = target: T2, Aurora kinase A (Homo sapiens, UniProt O14965); assay: Inhibition of AURORA-A (unknown origin)
# T2 sequence (O14965 whole entry): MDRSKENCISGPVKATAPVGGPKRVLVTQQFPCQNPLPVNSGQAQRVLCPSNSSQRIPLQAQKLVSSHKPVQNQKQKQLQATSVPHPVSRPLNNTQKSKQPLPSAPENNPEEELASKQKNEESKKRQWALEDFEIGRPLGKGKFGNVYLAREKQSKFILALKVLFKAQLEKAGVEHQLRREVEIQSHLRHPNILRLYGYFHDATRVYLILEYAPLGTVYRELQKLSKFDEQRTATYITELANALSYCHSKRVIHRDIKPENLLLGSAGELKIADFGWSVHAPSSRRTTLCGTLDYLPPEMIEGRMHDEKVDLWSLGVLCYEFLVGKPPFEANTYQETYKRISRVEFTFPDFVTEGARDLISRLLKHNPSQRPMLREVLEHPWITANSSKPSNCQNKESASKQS
# Aurora kinase B = Aurora kinase B (Homo sapiens, UniProt Q96GD4); assay: Inhibition of AURORA-B (unknown origin)
# Sequence of Aurora kinase B (Q96GD4 whole entry, the tested form may be a part): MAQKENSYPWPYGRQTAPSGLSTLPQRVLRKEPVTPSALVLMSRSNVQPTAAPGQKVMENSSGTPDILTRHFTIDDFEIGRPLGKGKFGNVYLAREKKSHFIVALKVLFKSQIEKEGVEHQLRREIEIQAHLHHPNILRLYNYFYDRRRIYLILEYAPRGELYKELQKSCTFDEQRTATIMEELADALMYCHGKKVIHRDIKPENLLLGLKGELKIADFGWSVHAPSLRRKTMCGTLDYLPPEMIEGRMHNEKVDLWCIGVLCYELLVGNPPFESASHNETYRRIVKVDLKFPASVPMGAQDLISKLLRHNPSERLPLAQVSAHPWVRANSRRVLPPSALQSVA
# [3] = target: Epithelial discoidin domain-containing receptor 1 (Homo sapiens, UniProt Q08345); assay: Inhibition of DDR1 (unknown origin)
# Sequence of Epithelial discoidin domain-containing receptor 1 (Q08345 whole entry, the tested form may be a part): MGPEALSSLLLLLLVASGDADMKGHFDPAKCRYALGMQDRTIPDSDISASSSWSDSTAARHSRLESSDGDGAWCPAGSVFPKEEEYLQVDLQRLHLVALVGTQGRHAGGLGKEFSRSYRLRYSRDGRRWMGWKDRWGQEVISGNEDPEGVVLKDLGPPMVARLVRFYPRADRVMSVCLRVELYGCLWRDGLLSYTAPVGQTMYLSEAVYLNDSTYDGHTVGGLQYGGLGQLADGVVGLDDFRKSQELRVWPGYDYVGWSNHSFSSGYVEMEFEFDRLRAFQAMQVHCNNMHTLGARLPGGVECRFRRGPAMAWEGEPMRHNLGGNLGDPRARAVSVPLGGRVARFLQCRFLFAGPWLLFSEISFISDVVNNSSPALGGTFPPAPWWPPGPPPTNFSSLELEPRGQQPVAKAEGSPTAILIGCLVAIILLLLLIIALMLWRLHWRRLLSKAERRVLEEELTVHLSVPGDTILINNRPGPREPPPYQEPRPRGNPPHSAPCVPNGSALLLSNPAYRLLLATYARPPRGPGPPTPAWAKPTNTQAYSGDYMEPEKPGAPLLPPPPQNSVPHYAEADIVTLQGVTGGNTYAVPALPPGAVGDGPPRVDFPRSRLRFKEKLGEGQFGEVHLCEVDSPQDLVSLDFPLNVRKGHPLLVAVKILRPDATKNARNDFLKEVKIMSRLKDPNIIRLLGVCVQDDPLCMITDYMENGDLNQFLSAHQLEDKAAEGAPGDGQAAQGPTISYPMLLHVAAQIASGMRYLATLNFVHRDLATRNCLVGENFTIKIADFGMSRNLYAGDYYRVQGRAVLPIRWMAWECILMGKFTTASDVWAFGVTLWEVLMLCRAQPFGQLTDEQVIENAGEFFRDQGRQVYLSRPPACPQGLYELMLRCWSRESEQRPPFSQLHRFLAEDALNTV
# [4] = target: Hepatocyte growth factor receptor (Homo sapiens) (UniProt P08581); assay: Inhibition of c-MET (unknown origin) at 100 nM relative to control
# Sequence of Hepatocyte growth factor receptor (Homo sapiens) (P08581 whole entry): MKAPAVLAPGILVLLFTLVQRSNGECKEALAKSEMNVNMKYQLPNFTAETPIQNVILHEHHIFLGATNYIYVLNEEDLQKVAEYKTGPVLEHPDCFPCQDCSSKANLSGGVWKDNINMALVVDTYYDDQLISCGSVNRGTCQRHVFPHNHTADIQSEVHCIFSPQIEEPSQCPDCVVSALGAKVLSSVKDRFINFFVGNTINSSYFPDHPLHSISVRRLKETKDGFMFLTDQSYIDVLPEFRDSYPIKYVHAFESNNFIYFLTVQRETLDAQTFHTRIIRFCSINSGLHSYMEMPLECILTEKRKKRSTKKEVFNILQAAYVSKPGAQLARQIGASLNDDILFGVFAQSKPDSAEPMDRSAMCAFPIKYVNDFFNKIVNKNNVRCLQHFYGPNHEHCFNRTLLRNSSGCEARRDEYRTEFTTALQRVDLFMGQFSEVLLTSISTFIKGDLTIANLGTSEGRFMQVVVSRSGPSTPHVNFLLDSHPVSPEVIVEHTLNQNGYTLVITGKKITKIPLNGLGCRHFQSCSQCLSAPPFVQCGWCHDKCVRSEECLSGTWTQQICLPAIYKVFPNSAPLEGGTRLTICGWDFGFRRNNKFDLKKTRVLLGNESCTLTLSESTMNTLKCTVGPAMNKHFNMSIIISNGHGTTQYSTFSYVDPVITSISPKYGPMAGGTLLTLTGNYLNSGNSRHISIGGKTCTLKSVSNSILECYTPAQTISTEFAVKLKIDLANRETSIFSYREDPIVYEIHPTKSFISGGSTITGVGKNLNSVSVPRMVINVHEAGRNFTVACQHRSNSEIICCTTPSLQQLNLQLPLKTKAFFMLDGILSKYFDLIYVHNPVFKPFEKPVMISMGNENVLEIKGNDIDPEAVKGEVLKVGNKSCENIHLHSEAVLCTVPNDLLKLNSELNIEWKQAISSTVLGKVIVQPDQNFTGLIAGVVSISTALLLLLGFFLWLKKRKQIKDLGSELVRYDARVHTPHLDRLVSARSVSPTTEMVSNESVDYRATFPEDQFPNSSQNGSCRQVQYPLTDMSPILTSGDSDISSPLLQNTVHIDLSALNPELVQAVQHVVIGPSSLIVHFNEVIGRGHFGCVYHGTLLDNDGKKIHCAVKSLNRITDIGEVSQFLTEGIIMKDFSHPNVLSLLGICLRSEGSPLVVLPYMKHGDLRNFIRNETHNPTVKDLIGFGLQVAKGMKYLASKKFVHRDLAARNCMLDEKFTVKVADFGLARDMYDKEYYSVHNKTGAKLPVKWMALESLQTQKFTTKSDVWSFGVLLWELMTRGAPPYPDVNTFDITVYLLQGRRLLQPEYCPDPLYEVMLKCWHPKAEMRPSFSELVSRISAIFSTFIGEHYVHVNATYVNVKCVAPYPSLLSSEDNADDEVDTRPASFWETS
# [5] = target: T3, Tyrosine-protein kinase receptor TYRO3 (Homo sapiens) (UniProt Q06418); assay: Inhibition of TYRO3 (unknown origin) at 100 nM relative to control
# T3 sequence (whole entry): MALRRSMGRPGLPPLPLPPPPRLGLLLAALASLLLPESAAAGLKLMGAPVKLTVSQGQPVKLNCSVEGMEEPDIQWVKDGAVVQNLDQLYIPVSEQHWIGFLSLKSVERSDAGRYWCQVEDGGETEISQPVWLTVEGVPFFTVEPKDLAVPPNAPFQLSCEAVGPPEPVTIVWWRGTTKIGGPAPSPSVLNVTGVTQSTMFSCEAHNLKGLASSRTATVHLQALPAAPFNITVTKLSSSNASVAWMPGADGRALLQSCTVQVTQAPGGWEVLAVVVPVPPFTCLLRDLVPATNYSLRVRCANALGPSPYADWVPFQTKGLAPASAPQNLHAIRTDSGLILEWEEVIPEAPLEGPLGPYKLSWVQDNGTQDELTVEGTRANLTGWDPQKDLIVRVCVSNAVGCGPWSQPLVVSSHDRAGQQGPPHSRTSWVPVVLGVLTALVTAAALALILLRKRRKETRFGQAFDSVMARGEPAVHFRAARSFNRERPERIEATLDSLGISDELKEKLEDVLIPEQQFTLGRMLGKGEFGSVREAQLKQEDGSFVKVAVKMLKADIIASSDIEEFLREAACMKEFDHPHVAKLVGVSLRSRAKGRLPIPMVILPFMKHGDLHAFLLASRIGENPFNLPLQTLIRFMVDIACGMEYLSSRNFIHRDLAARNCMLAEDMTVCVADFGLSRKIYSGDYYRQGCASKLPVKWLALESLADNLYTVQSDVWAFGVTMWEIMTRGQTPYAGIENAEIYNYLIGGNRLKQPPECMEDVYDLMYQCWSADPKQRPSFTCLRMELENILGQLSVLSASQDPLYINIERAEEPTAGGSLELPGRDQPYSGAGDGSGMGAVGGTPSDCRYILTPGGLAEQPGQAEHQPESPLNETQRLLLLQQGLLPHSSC
# [6] = target: T4, Tyrosine-protein kinase Mer (Homo sapiens) (UniProt Q12866); assay: Inhibition of MER (unknown origin) at 100 nM relative to control
# T4 sequence (whole entry): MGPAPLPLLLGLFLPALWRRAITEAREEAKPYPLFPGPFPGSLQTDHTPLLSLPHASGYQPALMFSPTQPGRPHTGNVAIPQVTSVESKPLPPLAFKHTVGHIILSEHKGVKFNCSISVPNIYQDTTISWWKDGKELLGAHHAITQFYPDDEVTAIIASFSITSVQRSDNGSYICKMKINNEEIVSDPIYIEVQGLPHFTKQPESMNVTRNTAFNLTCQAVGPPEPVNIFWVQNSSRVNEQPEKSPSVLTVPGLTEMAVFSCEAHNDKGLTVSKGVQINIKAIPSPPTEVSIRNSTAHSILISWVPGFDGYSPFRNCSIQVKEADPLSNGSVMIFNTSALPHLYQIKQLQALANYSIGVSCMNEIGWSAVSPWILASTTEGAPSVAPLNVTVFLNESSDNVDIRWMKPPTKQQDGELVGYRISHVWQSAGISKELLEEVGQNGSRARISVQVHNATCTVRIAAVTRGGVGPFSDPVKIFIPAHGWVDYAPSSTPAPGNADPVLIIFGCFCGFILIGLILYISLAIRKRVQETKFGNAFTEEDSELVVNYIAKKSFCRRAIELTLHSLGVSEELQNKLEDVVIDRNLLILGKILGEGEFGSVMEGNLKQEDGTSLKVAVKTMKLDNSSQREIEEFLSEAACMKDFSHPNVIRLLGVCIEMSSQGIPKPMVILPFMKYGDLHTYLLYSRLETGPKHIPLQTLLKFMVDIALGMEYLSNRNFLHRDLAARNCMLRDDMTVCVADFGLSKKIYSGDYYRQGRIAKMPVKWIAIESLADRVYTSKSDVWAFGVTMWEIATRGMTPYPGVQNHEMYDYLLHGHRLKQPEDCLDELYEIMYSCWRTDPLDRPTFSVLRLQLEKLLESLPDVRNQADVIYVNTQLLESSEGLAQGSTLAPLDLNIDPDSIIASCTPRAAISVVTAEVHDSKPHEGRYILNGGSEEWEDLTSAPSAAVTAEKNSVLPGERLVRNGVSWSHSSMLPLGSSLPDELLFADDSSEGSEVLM
Structure (SMILES),IC50 [1] [nM],other results
COc1cc2ncnc(Oc3ccc(NC(=O)c4c5n(n(-c6cccc(F)c6)c4=O)CCCC5)cc3F)c2cc1OC,5.9,–
O=C(Nc1ccc(Oc2ccnc3c2CCN3)c(F)c1)c1c[nH]cc(-c2ccc(F)cc2)c1=O,9,–
COc1cc2nccc(Oc3ccc(NC(=O)c4cc5c(n(-c6ccccc6)c4=O)CCCC5=O)nc3)c2cc1OC [TAMNORZATINIB],–,IC50 [2]: 0.7 nM
Nn1cc(-c2n[nH]c3cc(Cl)c(NC4CCNC4)cc23)cn1 (centres undefined),19,–
COc1cc2nccc(Oc3ccc(NC(=O)c4c5n(n(-c6cc(F)ccc6F)c4=O)CCCC5)cc3F)c2cc1OC,1.2,–
CN1CCc2ccc(Nc3ncc(Cl)c(Nc4ccccc4S(=O)(=O)N(C)C)n3)cc2C1,2600,–
CCc1ccc2c(c1)c(=O)c(C(=O)Nc1ccc(Oc3ccnc4cc(OC)c(OC)cc34)c(F)c1)c(C)n2C,4,IC50 (Aurora kinase A): 192 nM; IC50 (Aurora kinase B): 114 nM; IC50 [3]: 22.2 nM
COc1cc2nccc(Oc3ccc(NC(=O)c4c5n(n(-c6ccc(F)cc6)c4=O)CCCC5)cc3F)c2cc1OC,3.5,inhibition [4]: 98%; inhibition [5]: 71%; inhibition [6]: 100%
